Results as given in patent publication US20110059916A1, “Methods and Compositions for Inducing Torpor in a Subject” (priority 2006, published 2011).

Tests used:
mClps = mClps (procolipase) expression after injection into light-dark mice, Northern blot / RT-PCR; type: in vivo, mouse; settings: for mClps expression in the liver: injected into light-dark mice, Northern blot
Source text: Northern blot and RT-PCR analysis: Tissues were collected and frozen in liquid nitrogen and stored at about -80 C. The total RNA was isolated from mouse livers following standard procedures.^31 Twenty micrograms of total RNA was separated by electrophoresis and transferred onto a nylon membrane. The blots were hybridized with ^32P-labeled cDNA probes, washed and exposed to X-ray film as previously described.^30 Colipase probe was the complete cDNA (e.g., Genbank No: BC042935); the Gapdh probe was the Pst I fragment of rat Gapdh cDNA.^32 The primer pair used to measure colipase expression was SEQ ID NO:1 [NT] and SEQ ID NO:2 [NT], The primer pair used to measure Gapdh expression as an internal control was SEQ ID NO:3 [NT] and SEQ ID NO:4 [NT] 720 by probe for mouse pancreatic lipase related protein 2 (mPlrp2) was generated by RT-PCR using oligos LipaseF SEQ ID NO:5 [NT] and […] NO:6 [NT] from liver mRNA.

AMPK = settings: rat muscle, via AMPK; cited from earlier work
[1] = cited from earlier work
[2] = type: in vivo, mouse
Experimental: (§1) They were immediately put into individual 500 ml pre-cooled beakers placed in a chamber at 4° C. […] CBT of the mice was monitored by a digital thermometer (Fisher Scientific, USA, catalog 15-077-8) via a micro stainless steel probe (1 mm) placed 1 cm into the rectal opening of the mouse. Temperature readings were taken at 15-20 sec after insertion of the probe. Once the CBT dropped to 15±1.0° C., mice were then transferred to a regular mouse cage with bedding and kept in an environment chamber at a temperature set at 14±0.5° C. or 15±0.5° C. Mice in SA were visually monitored for arousal. Once arousal was apparent, the animals were returned to standard housing. After 12 h of SA, mice were returned to 20-22° C. AET housing with food and water given ad libitum. For 4 consecutive days after SA, food intakes were determined by weight differential of fresh chow and water after every 24 h at ZT2. Body weight was measured at every ZT2. Respiration rate was determined by placing a mouse inside an open-end 50 ml tube and the number of breaths were determined by counting the number of intakes and exhales over 10 sec intervals.
AET for about 60 min. Markedly different behavioral responses to 4° C. AET were observed. […] In contrast, mice injected with 5′-AMP maintained a relaxed posture and no apparent shivering. […] As CBT dropped below 31° C., the mice retained a considerable cognitive response to tactile stimuli indicating a state of torpor (T). However, when CBT dropped to 18-22° C., the mice lost much of their locomotor mobility but had the ability to reverse flip (RF) to right themselves when they were placed on their backs or sides. When CBT dropped below 17° C., this RF ability was lost and the animals entered a state of SA. When laid on their sides or backs, the mice appeared in a suspended animation state with out-stretched limbs and low respiration rates.
These observations raised questions concerning the relative contribution of 5′-AMP, AET and the CBT in mediating SA. To address these issues, the relationship between 5′-AMP and SA was investigated. […] AET for about 60 min.
AET to await spontaneous arousal.
To identify the driver of SA, the relationship between CBT of mice and the AET was investigated. Once in SA, mice were maintained either at 14±0.5° C. or 15±0.5° C. AET. […] Next, the arousal responses of mice kept at 14±0.5° C. or 15±0.5° C. AET were compared. The majority of mice maintained at 15±0.5° C. AET could spontaneously aroused from SA (FIG. 35b). […] When these mice were subsequently placed at a higher AET, they aroused spontaneously and could enter the S stage. A period of SA longer than 14 h was associated with a decline in the ability of the animal to enter the S stage after arousal by warming. […] The underlying cause(s) of death remains unclear.
Together, the foregoing studies indicate that CBT is a major driver of SA in direct response to a low AET. To obtain additional support for this conclusion, the effects of AET on the recovery rate from SA was investigated. Groups of mice (n=4) in SA with a CBT of about 15° C. were transferred into environments with increasing AET's. The time required for each animal's CBT to return to 37° C. was measured (FIG. 35c). A direct correlation between the increase in AET and the recovery rate from SA was seen. To determine whether there were any long-term negative effects from SA, food intake and body weight were measured for several days as an indirect assessment of health status. Mice (n=4) that exited SA spontaneously were used for these studies.

[3] = Daily injection of 5′-AMP into morbid obese Ob/Ob mice: body weight and food intake; type: in vivo; settings: Ob/Ob mouse, daily injection 5 then 2.5 umol/gbw, compared with saline
Source text: This was then decrease to 2.5 umol/gbw for the rest of the studies.

[4] = Heart rate at high concentrations; type: in vivo
[5] = Blood glucose after 5′-AMP injection; type: in vivo, mouse; settings: injections
[6] = Serum glucose and liver procolipase expression during SA and arousal; type: in vivo, mouse
Experimental: as §1, with “Experimental Procedures. Each mouse was injected intraperitoneally (IP) with the appropriate dosages of 5'-AMP (Sigma catalog# […]) dissolved in phosphate buffered saline. They were” for “They were”, “15±0.5° C. […] CBT. Mice in” for “15±0.5° C. Mice in”, “given ad labitum. For 4” for “given ad libitum. For 4”, “fresh chow every 24” for “fresh chow and water after every 24”, “sec intervals. These studies were carried out under institutionally approved animal protocol HSC-AWC 04-022. Analysis of serum glucose sample from mice at 2-3 h into SA was about 60% higher than control animals with CBT of 37° C. However, the serum blood glucose level drops to 40% below control animals at spontaneous arousal. […] A decline in blood glucose level can be reversed by increasing gluconeogenesis and reduced glucose need of major organs through β-oxidation of fatty acids. […] Liver RNA obtained from mice in normal state, SA, arousal by rewarming and spontaneous arousal was analyzed for procolipase expression by Northern blot analysis. […]” for “sec intervals.”

[7] = HPLC analysis of adenylates in blood, liver and muscle during SA; settings: mice in SA given a second injection, red blood cells, 2 hours later
Experimental: HPLC analysis for adenine nucleotides: Blood was rapidly removed from mice and frozen in liquid Nitrogen. Nucleotides were extracted from frozen samples using about 0.4 N perchloric acid as previously described.^35 Briefly, about 425 μl of ice-cold about 0.4 N perchloric acid was added to frozen blood samples and mixed. After about 10 μl was removed for protein determination, the remainder was centrifuged at about 14,000×g for about 10 minutes at about 4° C. The supernatant (e.g., 305 μl) was transferred to a clean tube, neutralized with about 178 μl of about 0.6 M KHCO3/about 0.72 M KOH and acidified with about 55 μl of about 0.18 M ammonium phosphate solution (pH 5.1) and one drop of dilute phosphoric acid. The samples were centrifuged and the supernatants were stored at about −80° C. for analysis. Blood extracts and adenine nucleotides ATP, ADP, AMP, c-AMP and adenosine (e.g., from Sigma, MO, USA) were separated and quantified using reversed-phase HPLC (e.g., Waters, Millipore Corp., Bedford, Mass.) analysis on a Partisphere bonded phase reverse phase C18 cartridge column at a flow rate of 1.5 ml/minutes.^36 The mobile phase was 0.02 M NH4H2PO4, pH 5.1, with a superimposed methanol gradient: about 0% for about 0-4 minutes, about 0-8% for about 4-6 minutes, about 8-20% for about 6-8 minutes, and about 20% for about 8-18 minutes.

[8] = IP, above 0.25 mg/gbw, chamber at 4° C.
[9] = mouse, 4° C. environment for the cooling phase

For `Nc1ncnc2c1ncn2[C@@H]1O[C@H](COP(=O)(O)OP(=O)(O)OP(=O)(O)O)[C@@H](O)[C@H]1O` [ATP], the “mClps expression in the liver” value (mClps) was “did not induce mClps expression”.
In the case of `Nc1ncnc2c1ncn2[C@@H]1O[C@H](COP(=O)(O)OP(=O)(O)O)[C@@H](O)[C@H]1O` [ADP, adenosine 5′-diphosphate], the “mClps expression in the liver” value (mClps) is reported as “did not induce mClps expression”.
For `NC(=O)c1ncn([C@@H]2O[C@H](CO)[C@@H](O)[C@H]2O)c1N` [AICAR, 5-aminoimidazole-4-carboxamide ribonucleoside], the fatty acid oxidation (AMPK) is given as “increase fatty acid oxidation”.
For `Nc1ncnc2c1ncn2[C@@H]1O[C@H](CO)[C@@H](O)[C@H]1O` [adenosine], the “mClps expression in the liver” value (mClps) is listed as “induced mClps expression” and the water solubility [1] is listed as “very low”.
With `CCNC(=O)[C@H]1O[C@@H](n2cnc3c(N)ncnc32)[C@H](O)[C@@H]1O` [NECA] the “mClps expression in the liver” value (mClps) was “did not induce colipase expression”.
With `Nc1ncnc2c1ncn2[C@@H]1O[C@@H]2COP(=O)(O)O[C@H]2[C@H]1O` [c-AMP] the “mClps expression in the liver” value (mClps) was “did not induce mClps expression”.
With `Nc1ncnc2c1ncn2[C@@H]1O[C@H](COP(=O)(O)O)[C@@H](O)[C@H]1O` [5′-AMP, 5′-adenosine monophosphate] the “length of SA as a function of 5′-AMP dose” value ([2]; 0.25 to 1.5 mg/gbw, maintained at 15±0.5° C. AET until spontaneous arousal) was “considerable overlap in the arousal time”, the “effective dosage (ED50) that induced at least 50% of the mice to enter SA” value ([2]; IP, 4° C. AET for about 60 min, CBT reduction to at least 15° C.) was 0.125 mg/gbw and the CBT reached [2, 8] was 15±1.0 °C. The thermo-regulatory responses [2, 8] was “blocked all thermo-regulatory responses”, the “time for CBT drop” value ([2]; IP, above 0.25 mg/gbw, chamber at 4° C., CBT to 15±1.0° C.) was 60 ± 10 min and the “CBT above ambient environmental temperature (AET) during SA” value ([2]; mice in SA) was 1-2 °C. The “dose that can induce deep torpor” value ([2]; mouse) was 5-7.5 mg/g body weight, the “ED50 for inducing torpor” value [2, 9] was “approximately 0.15 mg/gram body weight” and the “ED100 for inducing torpor” value [2, 9] was “approximately 0.25 mg/g body weight”. For the same molecule, the “body weight after SA” value ([2]; mouse, in vivo) was “no significant difference in body weight”, the “food intake after SA” value ([2]; mouse, in vivo) was “moderately lower food intake” and the “respiration rate in SA” value ([2]; normal about 120 breaths per min, CBT below 17° C.) was “reduced by at least two-thirds”. For the same molecule, the body weight [3] was “weight loss”, the “satiety / food intake” value [3] was “lower satiety” and the “mClps expression in peripheral tissues” value (mClps; RT-PCR) was “detected in all peripheral tissues sampled except the brain”. The “mClps expression in the liver” value (mClps) was “induced mClps expression”, the heart rate [4] was “slows the heart rate” and the blood glucose levels [5] was “reduce the blood glucose levels”. For the same molecule, the “serum glucose higher than control animals” value ([6]; 2-3 h into SA, control CBT 37° C.) was “about 60%”, the “serum blood glucose below control animals” value ([6]; at spontaneous arousal) was 40% and the “procolipase expression in liver” value ([6]; mice that had aroused spontaneously, Northern blot) was “robust level of procolipase expression”. The CBT after injection (high dose, from about 37° C., during about the first hour, ambient room temperature 24° C.) was “about 27 °C”, the “adverse effects on the torpid mice” value (mouse, in vivo) was “No apparent adverse effects” and the length of torpor (various dosages, wild type mice) was “dependent on the dosage”. For the same molecule, the “ATP level after a second injection” value [7] was “steep drop in ATP level”.
